# Assays:
# [1] = biological target: Serine/threonine-protein kinase PAK 2 (Homo sapiens) (UniProt Q13177); assay: Inhibition of human PAK2 using RRRLSFAEPG as substrate at 1 uM in presence of 32P-ATP by Hotspot assay relative to control; values are per cent of control
# [2] = biological target: T1, Tyrosine-protein kinase TXK (Homo sapiens) (UniProt P42681); assay: Inhibition of human TXK using EAIYAAPFAKKK as substrate at 1 uM in presence of 32P-ATP by Hotspot assay relative to control; values are per cent of control
# T1 sequence (whole entry): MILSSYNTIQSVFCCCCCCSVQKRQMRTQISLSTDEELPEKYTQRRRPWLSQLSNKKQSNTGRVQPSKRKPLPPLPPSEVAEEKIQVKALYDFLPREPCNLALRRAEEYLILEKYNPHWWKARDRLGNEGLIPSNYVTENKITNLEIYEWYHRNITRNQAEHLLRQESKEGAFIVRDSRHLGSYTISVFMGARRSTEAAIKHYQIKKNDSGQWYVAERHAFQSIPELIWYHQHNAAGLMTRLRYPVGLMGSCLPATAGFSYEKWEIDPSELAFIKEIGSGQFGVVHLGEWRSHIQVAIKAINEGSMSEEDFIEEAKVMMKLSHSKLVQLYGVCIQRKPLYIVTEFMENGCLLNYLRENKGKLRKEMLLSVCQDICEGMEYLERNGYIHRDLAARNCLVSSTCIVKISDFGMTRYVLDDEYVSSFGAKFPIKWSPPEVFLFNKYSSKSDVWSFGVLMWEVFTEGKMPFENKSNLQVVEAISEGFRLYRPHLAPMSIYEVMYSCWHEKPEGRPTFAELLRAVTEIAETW
# [3] = biological target: Receptor-type tyrosine-protein kinase FLT3 (Homo sapiens) (UniProt P36888); assay: Inhibition of human FLT3 using EAIYAAPFAKKK as substrate at 1 uM in presence of 32P-ATP by Hotspot assay relative to control; values are per cent of control
# [4] = biological target: Cyclin-dependent kinase 5/CDK5 activator 1 (Homo sapiens) (UniProt Q00535+Q15078); assay: Inhibition of human CDK5/p35 using RB Protein as substrate at 1 uM in presence of 32P-ATP by Hotspot assay relative to control; values are per cent of control
# Cyclin-dependent kinase 5/CDK5 activator 1 (Homo sapiens), sequence (Q00535 whole entry): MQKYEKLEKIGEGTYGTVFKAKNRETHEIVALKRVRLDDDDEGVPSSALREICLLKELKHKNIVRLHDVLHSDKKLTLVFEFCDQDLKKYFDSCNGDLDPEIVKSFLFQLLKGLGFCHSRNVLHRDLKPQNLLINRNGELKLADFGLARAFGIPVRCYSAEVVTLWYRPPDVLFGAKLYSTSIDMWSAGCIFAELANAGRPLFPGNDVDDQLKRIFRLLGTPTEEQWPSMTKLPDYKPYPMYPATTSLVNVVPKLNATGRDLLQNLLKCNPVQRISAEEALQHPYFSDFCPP
# Cyclin-dependent kinase 5/CDK5 activator 1 (Homo sapiens), sequence (Q15078 99-307 partner limits assumed): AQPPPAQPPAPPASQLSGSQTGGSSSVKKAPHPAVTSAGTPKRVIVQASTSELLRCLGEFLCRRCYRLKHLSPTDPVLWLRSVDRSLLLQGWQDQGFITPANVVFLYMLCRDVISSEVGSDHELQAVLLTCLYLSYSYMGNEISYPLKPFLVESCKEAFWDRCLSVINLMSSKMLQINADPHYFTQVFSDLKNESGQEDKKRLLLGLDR
# [5] = biological target: T2, Tyrosine-protein kinase JAK3 (Homo sapiens) (UniProt P52333); assay: Inhibition of human JAK3 using GGEEEEYFELVKKKK as substrate at 1 uM in presence of 32P-ATP by Hotspot assay relative to control; values are per cent of control
# T2 sequence (whole entry): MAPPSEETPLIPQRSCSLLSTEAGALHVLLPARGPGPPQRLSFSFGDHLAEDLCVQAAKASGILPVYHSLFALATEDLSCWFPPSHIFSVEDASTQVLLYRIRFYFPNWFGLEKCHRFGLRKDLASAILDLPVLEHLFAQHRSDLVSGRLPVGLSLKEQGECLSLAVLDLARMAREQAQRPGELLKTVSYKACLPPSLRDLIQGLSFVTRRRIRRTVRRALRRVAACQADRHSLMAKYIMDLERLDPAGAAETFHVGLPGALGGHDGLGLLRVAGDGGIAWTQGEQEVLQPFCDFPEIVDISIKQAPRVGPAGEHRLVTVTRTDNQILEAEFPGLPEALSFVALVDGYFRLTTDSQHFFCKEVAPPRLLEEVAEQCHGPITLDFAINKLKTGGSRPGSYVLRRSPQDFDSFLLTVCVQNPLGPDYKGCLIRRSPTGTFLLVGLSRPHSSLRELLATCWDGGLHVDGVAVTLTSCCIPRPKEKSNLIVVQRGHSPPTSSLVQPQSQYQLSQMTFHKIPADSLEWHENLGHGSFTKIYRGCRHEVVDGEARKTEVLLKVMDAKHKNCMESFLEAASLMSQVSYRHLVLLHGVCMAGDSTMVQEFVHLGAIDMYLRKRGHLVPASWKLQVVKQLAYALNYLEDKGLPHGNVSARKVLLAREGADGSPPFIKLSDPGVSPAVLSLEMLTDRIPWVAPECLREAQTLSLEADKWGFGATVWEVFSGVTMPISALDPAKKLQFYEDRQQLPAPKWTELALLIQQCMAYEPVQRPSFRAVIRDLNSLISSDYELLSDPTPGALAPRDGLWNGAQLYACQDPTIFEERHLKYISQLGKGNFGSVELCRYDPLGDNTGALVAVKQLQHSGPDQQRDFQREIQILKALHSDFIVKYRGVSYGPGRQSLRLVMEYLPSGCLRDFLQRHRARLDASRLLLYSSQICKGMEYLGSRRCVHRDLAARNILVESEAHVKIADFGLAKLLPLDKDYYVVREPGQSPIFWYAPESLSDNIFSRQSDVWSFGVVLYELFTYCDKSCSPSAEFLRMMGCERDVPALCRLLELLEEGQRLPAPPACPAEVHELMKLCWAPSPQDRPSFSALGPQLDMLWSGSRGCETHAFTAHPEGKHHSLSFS
# [6] = biological target: Epidermal growth factor receptor (Homo sapiens) (UniProt P00533); assay: Inhibition of human EGFR using poly[Glu:Tyr] (4:1) as substrate at 1 uM in presence of 32P-ATP by Hotspot assay relative to control; values are per cent of control
# Epidermal growth factor receptor (Homo sapiens), sequence (P00533 whole entry): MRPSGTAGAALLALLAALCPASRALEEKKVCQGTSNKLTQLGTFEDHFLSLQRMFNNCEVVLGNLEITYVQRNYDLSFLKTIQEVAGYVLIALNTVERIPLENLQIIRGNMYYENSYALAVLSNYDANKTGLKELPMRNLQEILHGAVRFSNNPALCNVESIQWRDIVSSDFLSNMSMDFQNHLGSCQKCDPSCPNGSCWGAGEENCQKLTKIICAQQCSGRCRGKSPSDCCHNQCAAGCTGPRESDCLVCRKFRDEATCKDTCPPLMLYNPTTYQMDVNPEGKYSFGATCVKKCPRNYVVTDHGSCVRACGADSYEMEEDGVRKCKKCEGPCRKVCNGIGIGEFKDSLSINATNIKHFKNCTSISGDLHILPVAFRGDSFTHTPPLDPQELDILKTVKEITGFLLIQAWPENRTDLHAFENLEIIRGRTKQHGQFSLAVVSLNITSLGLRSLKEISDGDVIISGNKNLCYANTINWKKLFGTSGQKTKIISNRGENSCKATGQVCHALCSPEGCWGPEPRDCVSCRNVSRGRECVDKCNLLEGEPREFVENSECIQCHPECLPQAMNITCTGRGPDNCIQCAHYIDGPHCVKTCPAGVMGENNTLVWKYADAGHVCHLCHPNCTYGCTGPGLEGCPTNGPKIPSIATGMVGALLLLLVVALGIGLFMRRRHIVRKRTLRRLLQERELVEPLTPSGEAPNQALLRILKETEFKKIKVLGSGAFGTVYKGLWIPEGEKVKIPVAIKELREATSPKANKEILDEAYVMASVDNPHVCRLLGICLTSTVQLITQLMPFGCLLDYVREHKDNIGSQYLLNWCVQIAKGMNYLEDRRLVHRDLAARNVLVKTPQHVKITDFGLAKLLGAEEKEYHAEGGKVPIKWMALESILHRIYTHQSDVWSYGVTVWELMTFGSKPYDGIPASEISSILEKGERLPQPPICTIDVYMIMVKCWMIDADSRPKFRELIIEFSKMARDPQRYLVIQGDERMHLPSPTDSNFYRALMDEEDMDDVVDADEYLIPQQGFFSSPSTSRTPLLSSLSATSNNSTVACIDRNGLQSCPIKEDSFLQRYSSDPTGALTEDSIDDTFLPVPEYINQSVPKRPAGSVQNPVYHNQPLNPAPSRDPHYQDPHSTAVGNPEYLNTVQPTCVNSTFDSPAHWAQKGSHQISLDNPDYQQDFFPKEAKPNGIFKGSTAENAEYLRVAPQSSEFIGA
# [7] = biological target: Protein-tyrosine kinase 2-beta (Homo sapiens) (UniProt Q14289); assay: Inhibition of human PYK2 using poly[Glu:Tyr] (4:1) as substrate at 1 uM in presence of 32P-ATP by Hotspot assay relative to control; values are per cent of control
# Protein-tyrosine kinase 2-beta (Homo sapiens), sequence (Q14289 whole entry, looked up): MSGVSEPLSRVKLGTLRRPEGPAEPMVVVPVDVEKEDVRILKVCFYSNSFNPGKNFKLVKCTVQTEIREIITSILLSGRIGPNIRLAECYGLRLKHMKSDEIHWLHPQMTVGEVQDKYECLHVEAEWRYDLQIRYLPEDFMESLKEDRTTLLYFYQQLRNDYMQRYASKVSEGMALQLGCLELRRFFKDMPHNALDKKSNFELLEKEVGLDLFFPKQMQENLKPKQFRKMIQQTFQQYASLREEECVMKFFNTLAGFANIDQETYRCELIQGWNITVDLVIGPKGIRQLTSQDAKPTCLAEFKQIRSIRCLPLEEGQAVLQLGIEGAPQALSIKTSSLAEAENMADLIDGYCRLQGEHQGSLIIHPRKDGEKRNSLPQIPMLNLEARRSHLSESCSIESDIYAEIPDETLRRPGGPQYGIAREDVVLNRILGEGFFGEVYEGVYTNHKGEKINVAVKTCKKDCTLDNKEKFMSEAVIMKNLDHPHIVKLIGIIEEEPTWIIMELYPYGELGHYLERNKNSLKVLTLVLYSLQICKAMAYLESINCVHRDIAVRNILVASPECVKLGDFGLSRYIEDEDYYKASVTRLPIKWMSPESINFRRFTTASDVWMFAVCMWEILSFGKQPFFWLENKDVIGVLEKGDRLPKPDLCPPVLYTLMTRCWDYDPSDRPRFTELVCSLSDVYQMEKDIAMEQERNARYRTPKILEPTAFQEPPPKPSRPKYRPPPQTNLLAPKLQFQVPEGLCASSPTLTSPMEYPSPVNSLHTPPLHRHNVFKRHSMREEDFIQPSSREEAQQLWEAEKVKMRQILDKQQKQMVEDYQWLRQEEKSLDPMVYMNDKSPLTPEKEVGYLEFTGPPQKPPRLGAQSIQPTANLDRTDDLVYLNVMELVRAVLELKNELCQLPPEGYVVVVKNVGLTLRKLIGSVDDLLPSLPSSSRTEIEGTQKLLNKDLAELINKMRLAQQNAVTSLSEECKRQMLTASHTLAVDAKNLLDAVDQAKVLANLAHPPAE
# [8] = biological target: Ephrin type-A receptor 5 (Homo sapiens) (UniProt P54756); assay: Inhibition of human EPHA5 using poly[Glu:Tyr] (4:1) as substrate at 1 uM in presence of 32P-ATP by Hotspot assay relative to control; values are per cent of control
# [9] = biological target: Receptor tyrosine-protein kinase erbB-2 (Homo sapiens) (UniProt P04626); assay: Inhibition of human ERBB2/HER2 using poly[Glu:Tyr] (4:1) as substrate at 1 uM in presence of 32P-ATP by Hotspot assay relative to control; values are per cent of control
# Receptor tyrosine-protein kinase erbB-2 (Homo sapiens), sequence (P04626 whole entry): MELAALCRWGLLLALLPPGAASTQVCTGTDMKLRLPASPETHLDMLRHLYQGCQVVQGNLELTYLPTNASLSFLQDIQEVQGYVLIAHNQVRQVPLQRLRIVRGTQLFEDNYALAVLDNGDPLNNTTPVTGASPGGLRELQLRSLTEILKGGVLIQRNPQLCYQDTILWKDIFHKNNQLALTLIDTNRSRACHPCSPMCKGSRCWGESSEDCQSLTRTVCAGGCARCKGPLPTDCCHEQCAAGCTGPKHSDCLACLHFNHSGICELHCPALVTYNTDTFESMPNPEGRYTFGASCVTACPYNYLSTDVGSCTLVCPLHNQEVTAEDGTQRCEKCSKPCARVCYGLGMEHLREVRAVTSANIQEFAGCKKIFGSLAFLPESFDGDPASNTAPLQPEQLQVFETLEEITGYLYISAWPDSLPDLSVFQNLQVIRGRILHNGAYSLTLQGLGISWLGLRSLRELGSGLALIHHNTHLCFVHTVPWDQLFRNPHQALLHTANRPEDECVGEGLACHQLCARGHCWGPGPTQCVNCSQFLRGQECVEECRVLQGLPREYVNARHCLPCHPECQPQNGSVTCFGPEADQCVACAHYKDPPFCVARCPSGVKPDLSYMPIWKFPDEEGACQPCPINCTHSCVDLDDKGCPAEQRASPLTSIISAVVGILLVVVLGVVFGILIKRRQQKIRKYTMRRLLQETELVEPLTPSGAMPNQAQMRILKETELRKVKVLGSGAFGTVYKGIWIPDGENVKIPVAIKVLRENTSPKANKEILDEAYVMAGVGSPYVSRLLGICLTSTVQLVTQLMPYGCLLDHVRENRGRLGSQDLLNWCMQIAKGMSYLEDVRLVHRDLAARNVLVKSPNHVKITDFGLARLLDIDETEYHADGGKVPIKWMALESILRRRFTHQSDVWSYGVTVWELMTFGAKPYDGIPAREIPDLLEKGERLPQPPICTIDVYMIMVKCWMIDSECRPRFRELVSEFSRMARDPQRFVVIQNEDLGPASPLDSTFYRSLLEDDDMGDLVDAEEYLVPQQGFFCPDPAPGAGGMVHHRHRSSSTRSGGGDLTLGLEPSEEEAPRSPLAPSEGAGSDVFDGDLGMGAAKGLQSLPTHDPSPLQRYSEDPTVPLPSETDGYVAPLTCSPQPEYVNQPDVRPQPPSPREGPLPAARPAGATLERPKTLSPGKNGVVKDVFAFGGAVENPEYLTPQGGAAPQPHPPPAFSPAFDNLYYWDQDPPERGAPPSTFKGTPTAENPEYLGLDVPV
# [10] = biological target: Serine/threonine-protein kinase MARK2 (Homo sapiens) (UniProt Q7KZI7); assay: Inhibition of human MARK2/PAR-1Ba using KKKVSRSGLYRSPSMPENLNRPR as substrate at 1 uM in presence of 32P-ATP by Hotspot assay relative to control; values are per cent of control
# Serine/threonine-protein kinase PAK 2 (Homo sapiens), sequence (Q13177 whole entry): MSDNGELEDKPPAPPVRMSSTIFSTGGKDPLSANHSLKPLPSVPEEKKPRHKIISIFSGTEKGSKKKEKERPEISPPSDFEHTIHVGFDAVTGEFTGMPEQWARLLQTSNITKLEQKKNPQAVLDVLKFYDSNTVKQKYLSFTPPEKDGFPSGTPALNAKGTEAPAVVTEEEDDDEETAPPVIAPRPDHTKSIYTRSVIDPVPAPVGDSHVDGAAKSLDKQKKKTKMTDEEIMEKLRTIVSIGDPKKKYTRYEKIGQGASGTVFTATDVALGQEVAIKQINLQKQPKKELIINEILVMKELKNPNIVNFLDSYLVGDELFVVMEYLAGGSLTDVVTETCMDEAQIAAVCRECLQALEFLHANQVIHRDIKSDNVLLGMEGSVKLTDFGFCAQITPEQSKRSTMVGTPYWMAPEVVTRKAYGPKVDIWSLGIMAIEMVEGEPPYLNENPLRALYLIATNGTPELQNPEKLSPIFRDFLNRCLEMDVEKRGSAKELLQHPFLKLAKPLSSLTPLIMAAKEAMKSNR
Compound,residual activity [1] [%],residual activity [2] [%],residual activity [3] [%],residual activity [4] [%],residual activity [5] [%],residual activity [6] [%],residual activity [7] [%],residual activity [8] [%],residual activity [9] [%],residual activity [10] [%]
Cc1cc(-c2cnc(N)c3c(-c4ccc5scnc5c4)csc23)n(C)n1,96.2,33.2,48,97.8,96.6,93.9,105,53.4,92.3,95.2
CNC(=O)c1ccc2c(c1)ncn2-c1ccc(CC(=O)OC(C)(C)C)cc1,91,84.2,16,97.1,94.3,97.7,96.4,96.7,100,95.6
CC(C)S(=O)(=O)c1ccc2nccc(Nc3ccc4scnc4c3)c2c1,101,47.4,87.9,98.7,102,90.7,95.5,70.6,85,96.6

# — ChEMBL document CHEMBL5649166, “RIP3 induces apoptosis independent of pronecrotic kinase activity” (Mol Cell, 2014)
